Measured values from US20100009907A1, “Glucagon-Like Peptides and Uses Thereof” (AMYLIN PHARMACEUTICALS, INC., priority 2006, published 2010).

Legend:
[1] = Acute food intake assay (FI Assay); format: in vivo, NIH/Swiss mice; conditions: 1000 μg/kg intraperitoneal, relative to vehicle
Protocol: The effect of various test peptides on food intake is investigated using an acute food intake assay. This assay measures food consumption in lean, group-housed, overnight-fasted NIH/Swiss mice. Twelve mice are housed three to a cage. […] Decreased, as well as increased, food intake is measured. Testing of the various doses of the polypeptide generates ED50s.
Female NIH/Swiss mice (8-24 weeks old) are group housed with a 12:12 hour light:dark cycle with lights on at 0600. Water and a standard pelleted mouse chow diet are available ad libitum, except as noted. Animals are fasted starting at approximately 1500 hrs, 1 day prior to experiment. The morning of the experiment, animals are divided into experimental groups.
At time=0 min, all animals are given an intraperitoneal injection of vehicle or compound in an amount ranging from about 63 to 1000 μg/kg, and immediately given a pre-weighed amount (10-15 g) of the standard chow.

[2] = molecular target: T1, RINm5f cells expressing endogenous GLP-1, calcitonin, and GIP receptors (Rattus norvegicus, UniProt P32301); assay: GLP/GIP/CT cAMP (RIN) assay; format: cell-based
T1 construct: RINm5f cells expressing endogenous GLP-1, calcitonin, and GIP receptors; endogenous in cells; host or cells: RINm5f cells
T1 sequence (P32301 22-463): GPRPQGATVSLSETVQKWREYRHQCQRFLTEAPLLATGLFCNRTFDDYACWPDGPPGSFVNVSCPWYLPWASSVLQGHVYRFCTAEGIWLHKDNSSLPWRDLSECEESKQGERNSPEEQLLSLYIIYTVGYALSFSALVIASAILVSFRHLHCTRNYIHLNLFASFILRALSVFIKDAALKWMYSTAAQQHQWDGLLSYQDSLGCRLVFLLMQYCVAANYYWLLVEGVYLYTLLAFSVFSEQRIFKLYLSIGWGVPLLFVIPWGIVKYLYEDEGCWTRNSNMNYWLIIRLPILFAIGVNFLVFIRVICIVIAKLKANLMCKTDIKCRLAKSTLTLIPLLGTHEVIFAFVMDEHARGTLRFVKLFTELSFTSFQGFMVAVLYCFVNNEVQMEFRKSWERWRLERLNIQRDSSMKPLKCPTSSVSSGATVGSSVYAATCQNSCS
Protocol: In addition, receptor binding can be measured using cells prepared from confluent cultures of RINm5f cells expressing endogenous GLP-1, calcitonin, and GIP receptors. Cells, and peptide or buffer solution are combined in 384-well plates. After a 30-minute incubation at room temperature in air, cAMP content is measured as recommended in the Perkin-Elmer AlphaScreen kit instructions.
Cells, and peptide or buffer solutions are combined in 384-well plates and incubated at room temperature in air for 30-minutes. cAMP content can then be measured according to recommendations in the Perkin-Elmer AlphaScreen™ kit instructions using the Perkin Elmer Fusion fluorimeter and data are analyzed using XLfit software (IDBS).

DPP-IV = DPP-IV (Homo sapiens, UniProt P27487); assay: Stability by DPP IV assay; format: in vitro ADME; conditions: isolated DPP-IV enzyme, DPP-IV approximately 5 mUnit, 37° C., intact peptide remaining, read-out: DDP IV % Stable
Chain of DPP-IV (P27487 whole entry, species assumed): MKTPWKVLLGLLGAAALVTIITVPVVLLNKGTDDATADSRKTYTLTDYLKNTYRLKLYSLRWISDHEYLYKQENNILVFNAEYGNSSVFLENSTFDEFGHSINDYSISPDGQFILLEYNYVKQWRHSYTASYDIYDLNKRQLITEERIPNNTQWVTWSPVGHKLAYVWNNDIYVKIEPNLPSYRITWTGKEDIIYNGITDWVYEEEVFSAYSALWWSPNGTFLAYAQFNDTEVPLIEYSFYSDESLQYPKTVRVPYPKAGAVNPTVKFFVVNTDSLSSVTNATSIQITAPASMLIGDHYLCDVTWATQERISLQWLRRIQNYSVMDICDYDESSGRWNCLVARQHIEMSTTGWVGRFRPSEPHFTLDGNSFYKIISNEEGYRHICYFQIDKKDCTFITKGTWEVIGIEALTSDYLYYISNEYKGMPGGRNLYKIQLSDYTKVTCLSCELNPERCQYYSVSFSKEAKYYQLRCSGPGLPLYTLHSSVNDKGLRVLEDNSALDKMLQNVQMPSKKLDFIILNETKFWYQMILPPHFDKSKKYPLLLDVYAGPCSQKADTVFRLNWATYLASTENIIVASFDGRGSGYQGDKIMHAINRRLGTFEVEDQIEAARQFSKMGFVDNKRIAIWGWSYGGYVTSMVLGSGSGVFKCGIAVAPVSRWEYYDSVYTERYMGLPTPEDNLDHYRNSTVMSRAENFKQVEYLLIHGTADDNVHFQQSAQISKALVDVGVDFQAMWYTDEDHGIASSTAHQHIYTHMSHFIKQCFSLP
Protocol: DPP-IV, approximately 5 mUnit in 5 mM Tris-HCl was added to 625 μL HEPES buffer (25 mM) in a 1.5 mL polypropylene microcentrifuge tube with an O-ring seal to prevent evaporation. Peptide stock solution, 70 μL (300 μM in 50% acetonitrile) was carefully added to this and mixed by brief manual shaking. Next, the solution was aliquoted into six tubes (6×100 μl. One tube contained 200 μL Stop solution (50% acetonitrile and 1% formic acid) that was used to determine the initial concentration of peptide (t=0). All six aliquots were then incubated at 37° C. while mixing at 500 RPM in the Vortemp 56 incubator. The digestion was stopped at 10 min intervals by adding 200 μL stop solution. The tube was then placed back into the incubator for 50 min. The solution was centrifuged at 19000×g for 10 minutes at room temperature. The supernatant was removed and 200 μL supernatant was transferred to an autosampler vials for analysis.
The most intense ion of the intact peptide was monitored to determine the rates of degradation and to quantify the amount of intact peptide remaining in the solution.

[3] = molecular target: T2, GLP-1 receptor (RINm5F cell membranes) (Rattus norvegicus, UniProt P32301); assay: GLP-1 receptor binding assay (GLP RBA), [125I]GLP-1 displacement; conditions: [125I]GLP-1 tracer
T2 construct: RINm5F insulinoma cells expressing endogenous GLP-1 receptors; endogenous in cells; host or cells: RINm5F cell membranes
T2 sequence (P32301 22-463): T1 sequence (P32301 22-463)
Protocol: Reaction mixtures are filtered through glass filter pads presoaked with 0.3% PEI solution and rinsed with ice-cold phosphate buffered saline. Bound counts are determined using a scintillation counter. Binding affinities are calculated using GraphPad Prism software (GraphPad Software, Inc., San Diego, Calif.).

CC[C@H](C)[C@H](NC(=O)[C@H](CC(C)C)NC(=O)[C@H](Cc1c[nH]c2ccccc12)NC(=O)[C@H](CC(=O)O)NC(=O)[C@@H](NC(=O)[C@H](Cc1ccccc1)NC(=O)[C@H](CCC(=O)O)NC(=O)[C@H](CCCCN)NC(=O)[C@H](C)NC(=O)[C@H](C)NC(=O)[C@H](CCCCN)NC(=O)[C@H](CCC(=O)O)NC(=O)[C@H](CC(=O)O)NC(=O)[C@H](CC(C)C)NC(=O)[C@H](CCC(N)=O)NC(=O)[C@H](CCC(N)=O)NC(=O)[C@@H](NC(=O)[C@@H](NC(=O)[C@H](CC(=O)O)NC(=O)[C@H](CO)NC(=O)[C@@H](NC(=O)[C@H](Cc1ccccc1)NC(=O)[C@@H](NC(=O)CNC(=O)[C@H](CCC(=O)O)NC(=O)[C@H](C)NC(=O)[C@@H](N)Cc1c[nH]cn1)[C@@H](C)O)[C@@H](C)O)C(C)C)[C@@H](C)O)[C@@H](C)CC)C(=O)N[C@@H](CC(N)=O)C(=O)NCC(=O)NCC(=O)N1CCC[C@H]1C(=O)N[C@@H](CO)C(=O)N[C@@H](CCCCN)C(=O)N[C@@H](CCC(=O)O)C(=O)N[C@H](C(=O)N[C@H](C(=O)N[C@@H](CO)C(=O)O)[C@@H](C)CC)[C@@H](C)CC [compound 1]
Food Intake % inhibition 30 min ([1]; 30 min): 56%
Food Intake % inhibition 60 min ([1]; 60 min): 69%
Food Intake % inhibition 120 min ([1]; 120 min): 73%
Food Intake % inhibition 180 min ([1]; 180 min): 72%
GLP/GIP/CT cAMP(RIN) EC50 [2]: 1.9 nM
remaining at 50 min, 30 µM (DPP-IV): 99%
IC50 [3]: 3 nM
